Source: publication PMC9965125, “New NSAID Conjugates as Potent and Selective COX-2 Inhibitors: Synthesis, Molecular Modeling and Biological Investigation” (Molecules, 2023)
Values joined by “and” are separate entries in the source; they are usually repeats but may differ in a detail not shown here. Equal entries are not always repeated.

Legend:
[1] = tested on: carrageenan induced paw edema; assay: carrageenan-induced rat paw edema; assay type: in vivo; conditions: for % Inhibition of Edema ± Standard Error / Mean Edema Thickness: 10 mg/kg indomethacin mol equivalent i.p.; for anti-inflammatory efficacy (in words): carrageenan-induced rat paw edema; for Mean Edema Thickness: ± standard error
Description: Anti-inflammatory activity screening
The anti-inflammatory activity of the tested compounds was determined in-vivo by the acute carrageenan induced paw edema standard method in rats. Adult Wister rats of either sex (pregnant female animals were excluded) weighing 120–150 g were divided into 19 groups of 6 animals each. The tested compounds dissolved in DMSO, at a dose of 10 mg kg-1 (rat body […]
inflammation. The control group was given DMSO only. Paw edema was induced by subcutaneous injection of freshly prepared 1% solution of carrageenan in saline (0.9%, 0.1 ml per rat) into subplantar tissue of the right hind paw of rats. The thickness of the paw was measured (in mm) after successive time intervals (1, 2, 3, 4 and 24 h) and compared with the initial hind paw thickness of each rat for determining the edema thickness. Data were collected, checked, revised and analyzed (SPSS 16). Quantitative variables from normal distribution were expressed as means ± SE “standard error”. The anti-inflammatory activity was expressed as percentage inhibition of edema thickness in treated animals in comparison with the control group according to eqn. (1) […]
% Inhibition of edema= Vc-Vt x 100 … .. (1)
Where, Vc and Vt are the means of edema paw thickness for the control and tested compound treated animal groups, respectively.
The potency of the tested compounds was expressed as % inhibition of edema thickness […]
% Potency = % inhibition of edema for the tested compound treated group x 100 … . (2)

[2] = tested on: acetic acid-induced abdominal writhing; assay: acetic acid-induced abdominal writhing assay (peripheral analgesic); assay type: in vivo, mice; conditions: for % Inhibition/Protection / Writing Reflex ± SE: 10 mg/kg indomethacin mol equivalent i.p.; for Potency: % inhibition/protection compared to indomethacin; for Writing Reflex ± SE: number of writhing counted for 30 min
Description: Peripheral analgesic testing
Peripheral analgesic activity was measured by the standard acetic acid-induced writhing […]
One hour after intraperitoneally (i,p.) administration of 10 mg kg−1 (mice body weight) […]
distilled/sterile water by the aid of two drops of Tween 80, each mouse was injected with 0.1 ml of 1% acetic acid solution i.p. The control group animals were given sterile/distilled water only with few drops of Tween 80. Starting 5 min after the acetic acid injection, the number of muscular contractions in each mouse was counted for 30 min. A significant reduction in the number of writhing by any test compound as compared to control animals was considered as a positive analgesic response. Percentage protection was calculated according to equ. (3), where n stands for the average number of writhing in the control group and n' is the average number of writhing in the treated group. The % potency was calculated by equ. (4) (Table 2).
% Inhibition/protection = n−n′ x100 … . (3)

hot plate latency = assay: hot plate assay (central analgesic); assay type: in vivo, mice; conditions: for % Protection / Latency Period ± SE: 10 mg/kg indomethacin mol equivalent i.p.; for Latency Period ± SE: cutoff 15 sec; for Potency: at 120 min compared to indomethacin
Description: The % potency was calculated by equ. (4) (Table 2). […]
% Potency = % protection of the tested compound x 100 ……. (4) […]
Central analgesic (hot plate) testing
The standard hot plate technique was undertaken by in vivo standard hot plate test [ 1,2]. […]
by placing them on a hot plate maintained at 55 ± 1 °C, 30 min. […]
suspended in sterile/distilled water by the ai d of two drops of Tween 80, and recording the reaction time in seconds for forepaw licking or jumping. The control group animals were given sterile/distilled water only with few drops of Tween 80. The maximum cutoff time was chosen as 15 sec. to prevent tissue damage. Response latencies were measured 30, 60, 90 and 120 min. after the application. The % protection was calculated by equ. ( 5) where, T1, T0 are the latency time mean of the tested compound and control group, respectively (Table 3).

Row | SMILES | % Inhibition of Edema ± Standard Error ([1]; 24 h) [%] | % Inhibition/Protection [2] [%] | Potency [2] [%] | Writing Reflex ± SE [2] | % Protection (hot plate latency; after 30 min) [%] | Latency Period ± SE (hot plate latency; after 30 min) [s] | % Protection (hot plate latency; after 60 min) [%] | Latency Period ± SE (hot plate latency; after 60 min) [s] | % Protection (hot plate latency; after 90 min) [%] | Latency Period ± SE (hot plate latency; after 90 min) [s] | % Protection (hot plate latency; after 120 min) [%] | Latency Period ± SE (hot plate latency; after 120 min) [s] | Potency (hot plate latency) | % Inhibition of Edema ± Standard Error ([1]; 1 h) [%] | also measured
1 | COc1ccc2c(c1)c(CC(=O)OCc1cn(-c3ccc(F)cc3)nn1)c(C)n2C(=O)c1ccc(Cl)cc1 [Compound 8c, (1-(4-Fluorophenyl)-1H-1,2,3-triazol-4-yl)methyl 2-(1-(4-chlorobenzoyl)-5-methoxy-2-methyl-1H-indol-3-yl)acetate] | 0.00 ± 1.0 | 41.3 | 57.5 | 23.5 ± 1.4 | 69.5 | 11.32 ± 0.8 | 29.2 | 9.39 ± 1.1 | 27.9 | 11.40 ± 1.6 | 48.1 | 13.34 ± 1.8 | 85.1 | – | –
2 | COc1ccc2c(c1)c(CC(=O)OCc1cn(-c3ccc(Cl)cc3)nn1)c(C)n2C(=O)c1ccc(Cl)cc1 [Compound 8b, (1-(4-Chlorophenyl)-1H-1,2,3-triazol-4-yl)methyl 2-(1-(4-chlorobenzoyl)-5-methoxy-2-methyl-1H-indol-3-yl)acetate] | – | 46.3 | 64.5 | 21.5 ± 1.5 | 2.4 | 6.84 ± 1.4 | 14.3 | 8.31 ± 1.9 | 11.2 | 9.91 ± 1.7 | 9.7 | 9.88 ± 2.0 | 17.2 | – | anti-inflammatory efficacy (in words) [1]: no anti-inflammatory efficacy
3 | COc1ccc(-n2cc(COC(=O)C(C)c3ccc(CC(C)C)cc3)nn2)cc1 (centres unmarked) [Compound 5f, (1-(4-Methoxyphenyl)-1H-1,2,3-triazol-4-yl)methyl 2-(4-isobutylphenyl)propanoate] | 2.5 ± 0.9 | 80.0 | 111.4 | 8.0 ± 1.4 | 90.1 | 12.7 ± 0.9 | 56.8 | 11.40 ± 1.5 | 19.0 | 10.60 ± 1.9 | 0.2 | 9.03 ± 1.6 | 0.4 | – | % Inhibition of Edema ± Standard Error ([1]; 4 h): 1.8 ± 0.7%
4 | COc1ccc(-n2cc(COC(=O)Cc3c(C)n(C(=O)c4ccc(Cl)cc4)c4ccc(OC)cc34)nn2)cc1 [Compound 8f, (1-(4-Methoxyphenyl)-1H-1,2,3-triazol-4-yl)methyl 2-(1-(4-chlorobenzoyl)-5-methoxy-2-methyl-1H-indol-3-yl)acetate] | – | 66.8 | 93.0 | 13.3 ± 1.9 | 66.3 | 11.11 ± 1.6 | 92.4 | 13.99 ± 1.9 | 68.4 | 15.00 ± 2.5 | 66.5 | 15.00 ± 2.6 | 117.7 | – | anti-inflammatory efficacy (in words) [1]: no anti-inflammatory efficacy
5 | COc1ccc2c(c1)c(CC(=O)OCc1cn(-c3ccc([N+](=O)[O-])cc3)nn1)c(C)n2C(=O)c1ccc(Cl)cc1 [Compound 8g, (1-(4-Nitrophenyl)-1H-1,2,3-triazol-4-yl)methyl 2-(1-(4-chlorobenzoyl)-5-methoxy-2-methyl-1H-indol-3-yl)acetate] | 0.00 ± 1.2 | 96.3 | 134.1 | 1.5 ± 0.4 | 56.6 | 10.46 ± 2.4 | 45.4 | 10.57 ± 2.7 | 41.2 | 12.58 ± 2.0 | 2.7 | 9.25 ± 2.3 | 4.8 | 20.0 ± 0.7 | –
6 | COc1ccc2c(c1)c(CC(=O)OCc1cn(-c3ccccc3Cl)nn1)c(C)n2C(=O)c1ccc(Cl)cc1 [Compound 8a, (1-(2-Chlorophenyl)-1H-1,2,3-triazol-4-yl)methyl 2-(1-(4-chlorobenzoyl)-5-methoxy-2-methyl-1H-indol-3-yl)acetate] | – | 49.3 | 68.7 | 20.3 ± 1.8 | 82.5 | 12.19 ± 1.9 | 85.8 | 13.51 ± 1.7 | 55.4 | 13.85 ± 1.4 | 51.3 | 13.63 ± 1.3 | 90.8 | 0.00 ± 1.5 | Mean Edema Thickness ([1]; 1 h): 0.863 ± 0.07 mm; % Inhibition of Edema ± Standard Error ([1]; 2 h): 44.9 ± 1.7%; Mean Edema Thickness ([1]; 2 h): 0.393 ± 0.08 mm; % Inhibition of Edema ± Standard Error ([1]; 3 h, 10 mg/kg): 32.5% and 32.5 ± 1.5%; Mean Edema Thickness ([1]; 3 h): 0.488 ± 0.07 mm; % Inhibition of Edema ± Standard Error ([1]; 4 h): 26.9 ± 1.1%; Mean Edema Thickness ([1]; 4 h): 0.521 ± 0.03 mm; % Inhibition of Edema ± Standard Error ([1]; 24 h, 10 mg/kg): 33.3% and 33.3 ± 2.4%; Mean Edema Thickness ([1]; 24 h): 0.614 ± 0.09 mm; % Potency ([1]; % inhibition of edema thickness relative to indomethacin at 3 h): 40.1%
7 | CC(C)Cc1ccc(C(C)C(=O)OCc2cn(-c3ccc([N+](=O)[O-])cc3)nn2)cc1 (centres unmarked) [Compound 5g, (1-(4-Nitrophenyl)-1H-1,2,3-triazol-4-yl)methyl 2-(4-isobutylphenyl)propanoate] | 0.00 ± 0.5 | 65.0 | 90.5 | 14.0 ± 1.9 | 87.1 | 12.5 ± 2.1 | 73.2 | 12.59 ± 1.5 | 19.0 | 10.60 ± 2.6 | 28.1 | 11.54 ± 2.2 | 49.7 | 34.0 ± 1.8 | –
8 | CC(C)Cc1ccc(C(C)C(=O)OCc2cn(-c3ccc(F)cc3)nn2)cc1 (centres unmarked) [Compound 5c, (1-(4-Fluorophenyl)-1H-1,2,3-triazol-4-yl)methyl 2-(4-isobutylphenyl)propanoate] | 0.00 ± 0.2 | 83.3 | 116.0 | 6.7 ± 0.5 | 112.1 | 14.17 ± 2.6 | 106.3 | 15.0 ± 2.3 | 67.3 | 14.91 ± 2.5 | – | 10.63 ± 1.8 | 31.9 | 0.00 ± 1.0 | % Protection (hot plate latency; after 120 min, 10 mg/kg): 18%; % protection relative to its parent drug ibuprofen (hot plate latency; at 30 min): 1.8 folds
